Test results from US8680159B2, “Bradykinin 1 receptor modulating compounds” (Gruenenthal GmbH, priority 2010, dated 2014).

Experiments:
[1] = target: T1, B1R receptor of the rat (CHO K1 cells stably transfected with the B1R gene of the rat) (Rattus norvegicus, UniProt P97583); experiment: Functional study on the bradykinin receptor 1 (B1R), Ca2+ fluorescence (Fluo-4) FLIPR/Novostar assay, rB1R cells; type: cell-based; details: for inhibition at 10 µM: CHO-K1, 10 μM, read-out: % Inhibition (r-B1R) at 10 μM
T1 construct: expressed in transfected cells; host or cells: CHO K1 cells (Chinese hamster ovary), stably transfected
T1 sequence (P97583 1-337): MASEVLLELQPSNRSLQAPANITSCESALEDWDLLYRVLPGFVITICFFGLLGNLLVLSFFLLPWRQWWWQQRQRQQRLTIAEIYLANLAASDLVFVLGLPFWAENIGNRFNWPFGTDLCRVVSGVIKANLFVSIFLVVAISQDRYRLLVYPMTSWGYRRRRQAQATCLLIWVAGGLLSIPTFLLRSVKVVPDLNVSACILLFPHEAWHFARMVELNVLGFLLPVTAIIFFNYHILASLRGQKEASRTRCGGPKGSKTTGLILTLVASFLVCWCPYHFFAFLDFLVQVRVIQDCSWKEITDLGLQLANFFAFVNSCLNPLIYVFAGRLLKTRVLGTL
In short: (§1)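 Test compounds (10 μM) were added first and the Ca2+ rise was scored as % activation against Lys-Des-Arg9-bradykinin (≥50 nM, human) or Des-Arg9-bradykinin (≥1 μM, rat). After 6-20 min, the matching agonist was given at its EC80, and % inhibition relative to maximal achievable inhibition was calculated.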

[2] = target: T2, human B1R receptor (CHO K1 cells stably transfected with the human B1R gene) (Homo sapiens, UniProt P46663); experiment: Functional study on the bradykinin receptor 1 (B1R), Ca2+ fluorescence (Fluo-4) FLIPR/Novostar assay, hB1R cells; type: cell-based; details: CHO-K1, read-out: % Inhibition (h-B1R) at 10 μM
T2 construct: expressed in transfected cells; host or cells: CHO K1 cells (Chinese hamster ovary), stably transfected
T2 sequence (P46663 1-353): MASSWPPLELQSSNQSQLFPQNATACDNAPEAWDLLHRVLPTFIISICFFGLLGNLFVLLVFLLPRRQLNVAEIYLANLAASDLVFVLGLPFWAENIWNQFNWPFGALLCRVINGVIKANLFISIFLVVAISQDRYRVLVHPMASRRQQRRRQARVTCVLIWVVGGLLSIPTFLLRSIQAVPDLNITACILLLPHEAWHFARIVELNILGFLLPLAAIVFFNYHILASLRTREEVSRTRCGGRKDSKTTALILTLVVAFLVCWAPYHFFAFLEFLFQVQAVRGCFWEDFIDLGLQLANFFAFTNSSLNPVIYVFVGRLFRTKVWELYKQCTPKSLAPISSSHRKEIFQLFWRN
In short: as §1

Row | Structure (SMILES) | inhibition at 10 µM [1] [%] | inhibition at 10 µM [2] [%] | % Inhibition (r-B1R) at 10 μM [1] [%]
1 | CN(C(=O)c1ccc2c(c1)C(NC(=O)c1sccc1Cl)CC2(C)C)C1CCN(c2ccncc2)CC1 (stereo not shown) [CC_H-20, 3-Chloro-N-[3,3-dimethyl-6-[methyl-(1-pyridin-4-yl-piperidin-4-yl)-carbamoyl]-1,2-dihydro-inden-1-yl]-thiophene-2-carboxylic acid amide] | 104 | 99 | –
2 | CN(C(=O)c1ccc2c(c1)C(NC(=O)c1cc(F)ccc1Cl)CC2(C)C)C1CCN(c2ccncc2)CC1 (stereo not shown) [CC_H-21, 3-[(2-Chloro-5-fluoro-benzoyl)amino]-N,1,1-trimethyl-N-(1-pyridin-4-yl-piperidin-4-yl)-2,3-dihydro-indene-5-carboxylic acid amide] | – | 99 | 104
3 | CN(C(=O)c1ccc2c(c1)C(NC(=O)c1cncnc1)CC2(C)C)C1CCN(c2ccncc2)CC1 (stereo not shown) [CC_H-22, N-[3,3-Dimethyl-6-[methyl-(1-pyridin-4-yl-piperidin-4-yl)-carbamoyl]-1,2-dihydro-inden-1-yl]-pyrimidine-5-carboxylic acid amide] | 90 | 97 | –
4 | CN(C(=O)c1ccc2c(c1)C(NC(=O)c1ccccc1Cl)CC2(C)C)C1CCN(c2ccncc2)CC1 (stereo not shown) [CC_H-23, 3-[(2-Chloro-benzoyl)amino]-N,1,1-trimethyl-N-(1-pyridin-4-yl-piperidin-4-yl)-2,3-dihydro-indene-5-carboxylic acid amide] | 104 | 99 | –
5 | CN(C(=O)c1ccc2c(c1)C(NC(=O)c1ccccc1Cl)CC2)C1CCN(c2ccncc2)CC1 (stereo not shown) [CC_H-24, 3-[(2-Chloro-benzoyl)amino]-N-methyl-N-(1-pyridin-4-yl-piperidin-4-yl)-2,3-dihydro-1H-indene-5-carboxylic acid amide] | 105 | 100 | –
6 | CN(C(=O)c1ccc2c(c1)C(N(C)C(=O)c1cccc(Cl)c1Cl)CC2)C1CCN(c2ccncc2)CC1 (stereo not shown) [CC_H-25, 3-[(2,3-Dichloro-benzoyl)-methyl-amino]-N-methyl-N-(1-pyridin-4-yl-piperidin-4-yl)-2,3-dihydro-1H-indene-5-carboxylic acid amide] | 104 | 98 | –
7 | CN(C(=O)c1ccc2c(c1)C(NC(=O)c1cc(F)ccc1Cl)CC2)C1CCN(c2ccncc2)CC1 (stereo not shown) [CC_H-26, 3-[(2-Chloro-5-fluoro-benzoyl)amino]-N-methyl-N-(1-pyridin-4-yl-piperidin-4-yl)-2,3-dihydro-1H-indene-5-carboxylic acid amide] | – | 100 | 103
8 | CN(C(=O)c1ccc2c(c1)C(N(C)C(=O)c1cc(F)ccc1Cl)CC2)C1CCN(c2ccncc2)CC1 (stereo not shown) [CC_H-27, 3-[(2-Chloro-5-fluoro-benzoyl)-methyl-amino]-N-methyl-N-(1-pyridin-4-yl-piperidin-4-yl)-2,3-dihydro-1H-indene-5-carboxylic acid amide] | – | 100 | 104
9 | CC(C)CC(=O)N(C)C1CCc2ccc(C(=O)N(C)C3CCN(c4ccncc4)CC3)cc21 (stereo not shown) [CC_H-28, N-Methyl-3-[methyl-(3-methyl-butanoyl)-amino]-N-(1-pyridin-4-yl-piperidin-4-yl)-2,3-dihydro-1H-indene-5-carboxylic acid amide] | 103 | 99 | –
10 | CN(C(=O)c1ccc2c(c1)C(NC(=O)c1sccc1Cl)CC2)C1CCN(c2ccncc2)CC1 (stereo not shown) [CC_H-29, 3-Chloro-N-[6-[methyl-(1-pyridin-4-yl-piperidin-4-yl)-carbamoyl]-2,3-dihydro-1H-inden-1-yl]-thiophene-2-carboxylic acid amide] | 103 | 99 | –
11 | CN(C(=O)c1ccc2c(c1)C(N(C)C(=O)c1sccc1Cl)CC2)C1CCN(c2ccncc2)CC1 (stereo not shown) [CC_H-30, 3-Chloro-N-methyl-N-[6-[methyl-(1-pyridin-4-yl-piperidin-4-yl)-carbamoyl]-2,3-dihydro-1H-inden-1-yl]-thiophene-2-carboxylic acid amide] | 104 | 99 | –
12 | CN(C(=O)c1ccc2c(c1)C(N(C)C(=O)c1cnccc1C(F)(F)F)CC2)C1CCN(c2ccncc2)CC1 (stereo not shown) [CC_H-32, N-Methyl-N-[6-[methyl-(1-pyridin-4-yl-piperidin-4-yl)-carbamoyl]-2,3-dihydro-1H-inden-1-yl]-4-(trifluoromethyl)-pyridine-3-carboxylic acid amide] | 105 | 97 | –
13 | CN(C(=O)c1ccc2c(c1)C(NC(=O)c1ccccc1Cl)CCO2)C1CCN(c2ccncc2)CC1 (stereo not shown) [CC_H-33, 4-[(2-Chloro-benzoyl)amino]-N-methyl-N-(1-pyridin-4-yl-piperidin-4-yl)-3,4-dihydro-2H-chromene-6-carboxylic acid amide] | 104 | 98 | –
14 | O=C(NCCC1CCN(c2ccncc2)CC1)c1ccc2c(c1)C(NC(=O)c1ccccc1Cl)CC2 (stereo not shown) [CC_H-34, 3-[(2-Chloro-benzoyl)amino]-N-[2-(1-pyridin-4-yl-piperidin-4-yl)-ethyl]-2,3-dihydro-1H-indene-5-carboxylic acid amide] | 104 | 99 | –
15 | CN(C(=O)c1ccc2c(c1)C(NC(=O)c1cccc(Cl)c1Cl)CCO2)C1CCN(c2ccncc2)CC1 (stereo not shown) [CC_H-35, 4-[(2,3-Dichloro-benzoyl)amino]-N-methyl-N-[1-pyridin-4-yl-piperidin-4-yl]-3,4-dihydro-2H-chromene-6-carboxylic acid amide] | 104 | 97 | –
16 | O=C(NCCC1CCN(c2ccncc2)CC1)c1ccc2c(c1)C(NC(=O)c1cc(F)ccc1Cl)CC2 (stereo not shown) [CC_H-36, 3-[(2-Chloro-5-fluoro-benzoyl)amino]-N-[2-(1-pyridin-4-yl-piperidin-4-yl)-ethyl]-2,3-dihydro-1H-indene-5-carboxylic acid amide] | 104 | 99 | –
17 | O=C(NCCC1CCN(c2ccncc2)CC1)c1ccc2c(c1)C(NC(=O)c1cnccc1C(F)(F)F)CC2 (stereo not shown) [CC_H-37, N-[6-[2-(1-Pyridin-4-yl-piperidin-4-yl)-ethyl-carbamoyl]-2,3-dihydro-1H-inden-1-yl]-4-(trifluoromethyl)-pyridine-3-carboxylic acid amide] | 104 | 93 | –
18 | CN(C(=O)c1ccc2c(c1)C(NC(=O)C1CCCCC1)CCO2)C1CCN(c2ccncc2)CC1 (stereo not shown) [CC_H-38, 4-(Cyclohexanecarbonylamino)-N-methyl-N-(1-pyridin-4-yl-piperidin-4-yl)-3,4-dihydro-2H-chromene-6-carboxylic acid amide] | 104 | 99 | –
19 | CC(C)CC(=O)NC1CCOc2ccc(C(=O)N(C)C3CCN(c4ccncc4)CC3)cc21 (stereo not shown) [CC_H-39, N-Methyl-4-(3-methyl-butanoylamino)-N-(1-pyridin-4-yl-piperidin-4-yl)-3,4-dihydro-2H-chromene-6-carboxylic acid amide] | – | 99 | 104
20 | CN(C(=O)c1ccc2c(c1)C(NC(=O)c1sccc1Cl)CCO2)C1CCN(c2ccncc2)CC1 (stereo not shown) [CC_H-40, 4-[(3-Chloro-thiophene-2-carbonyl)amino]-N-methyl-N-(1-pyridin-4-yl-piperidin-4-yl)-3,4-dihydro-2H-chromene-6-carboxylic acid amide] | 100 | 95 | –
21 | CC(C)CC(=O)NC1CCc2ccc(C(=O)N(C)C3CCN(c4ccncc4)CC3)cc21 (stereo not shown) [CC_H-41, N-Methyl-3-(3-methyl-butanoylamino)-N-(1-pyridin-4-yl-piperidin-4-yl)-2,3-dihydro-1H-indene-5-carboxylic acid amide] | 104 | 100 | –
22 | CN(C(=O)c1ccc2c(c1)C(NC(=O)c1cnccc1C(F)(F)F)CCO2)C1CCN(c2ccncc2)CC1 (stereo not shown) [CC_H-42, N-[6-[Methyl-(1-pyridin-4-yl-piperidin-4-yl)-carbamoyl]-3,4-dihydro-2H-chromen-4-yl]-4-(trifluoromethyl)-pyridine-3-carboxylic acid amide] | 104 | 99 | –
23 | CC(C)CC(=O)NC1CC(C)(C)c2ccc(C(=O)N(C)C3CCN(c4ccncc4)CC3)cc21 (stereo not shown) [CC_H-43, N,1,1-Trimethyl-3-(3-methyl-butanoylamino)-N-(1-pyridin-4-yl-piperidin-4-yl)-2,3-dihydro-indene-5-carboxylic acid amide] | 105 | 100 | –
